Test results reported in ChEMBL document CHEMBL1132411, “Bis- and mixed-tetrahydroisoquinolinium chlorofumarates: new ultra-short-acting nondepolarizing neuromuscular blockers” (1999).

Key:
Assay type in all cases: functional, Cercopithecidae
[1] = tested on: Monkey; experiment: Compound was evaluated for the dose producing 95% suppression of the twitch response in male Rhesus Monkey.
[2] = tested on: Monkey; experiment: Compound was evaluated for the time from injection to peak inhibition of the twitch response at the ED95 dose
[3] = tested on: Monkey; experiment: Compound was evaluated for the time from injection to recovery of the twitch to 95% of baseline at the ED95 dose
[4] = tested on: Monkey; experiment: Compound was evaluated for the time from injection to peak inhibition of the twitch response at 0.4 mg/kg dose
[5] = tested on: Monkey; experiment: Compound was evaluated for the time from injection to peak inhibition of the twitch response at 0.2 mg/kg dose
[6] = tested on: Monkey; experiment: Compound was evaluated for the time from injection to recovery of the twitch to 95% of baseline at 0.4 mg/kg dose
[7] = tested on: Monkey; experiment: Compound was evaluated for the time from injection to recovery of the twitch to 95% of baseline at 0.2 mg/kg dose
[8] = Cercopithecidae, in Macaca mulatta, read-out: ED95

| SMILES | ED95 [1, 8] [mg/kg] | Onset [2] [s] | Duration [3] [min] | further results |
| --- | --- | --- | --- | --- |
| COc1cc2c(cc1OC)[C@@H](Cc1cc(OC)c(OC)c(OC)c1)[N+](C)(CCCOC(=O)CC/C=C/CCC(=O)OCCC[N+]1(C)CCc3cc(OC)c(OC)cc3[C@H]1Cc1cc(OC)c(OC)c(OC)c1)CC2.[Cl-].[Cl-] (stereo partly specified) [MIVACURIUM CHLORIDE] | 0.062 | 107 | 12 | – |
| COc1cc2c(cc1OC)[C@H](c1cc(OC)c(OC)c(OC)c1)[N@@+](C)(CCCOC(=O)/C=C(\Cl)C(=O)OCCC[N@@+]1(C)CCc3cc(OC)c(OC)cc3[C@@H]1c1cc(OC)c(OC)c(OC)c1)CC2.[Cl-].[Cl-] | 8.5 | 55 | 11.2 | – |
| COc1cc2c(cc1OC)[C@@H](c1cc(OC)c(OC)c(OC)c1)[N@+](C)(CCCOC(=O)/C(Cl)=C/C(=O)OCCC[N@+]1(C)CCc3cc(OC)c(OC)cc3[C@H]1Cc1cc(OC)c(OC)c(OC)c1)CC2.[Cl-].[Cl-] | 0.31 | 37 | 3.7 | – |
| COc1cc2c(cc1OC)[C@@H](c1cc(OC)c(OC)c(OC)c1)[N@+](C)(CCCOC(=O)/C=C(\Cl)C(=O)OCCC[N@+]1(C)CCc3cc(OC)c(OC)cc3[C@H]1c1cc(OC)c(OC)c(OC)c1)CC2.[Cl-].[Cl-] | 1.79 | 46 | 5.1 | – |
| COc1cc2c(cc1OC)[C@H](c1cc(OC)c(OC)c(OC)c1)[N@@+](C)(CCCOC(=O)/C=C(\Cl)C(=O)OCCC[N@+]1(C)CCc3cc(OC)c(OC)cc3[C@H]1Cc1cc(OC)c(OC)c(OC)c1)CC2.[Cl-].[Cl-] (stereo in doubt; 6ab) [GANTACURIUM CHLORIDE] | – | 51 | 5.6 | ED95 [1]: 0.163 mg/kg; Onset ([4]; 0.4 mg/kg): 27 s; Onset ([5]; 0.2 mg/kg): 44 s; Duration ([6]; 0.4 mg/kg): 8.7 min; Duration ([7]; 0.2 mg/kg): 7.1 min |
| COc1cc2c(cc1OC)[C@H](c1cc(OC)c(OC)c(OC)c1)[N@@+](C)(CCCOC(=O)/C=C(\Cl)C(=O)OCCC[N@+]1(C)CCc3cc(OC)c(OC)cc3[C@H]1Cc1cc(OC)c(OC)c(OC)c1)CC2.[Cl-].[Cl-] (stereo in doubt; 6a) [GANTACURIUM CHLORIDE] | – | 88 | – | ED95 [1]: 0.063 mg/kg; Onset ([4]; 0.4 mg/kg): 25 s; Onset ([5]; 0.2 mg/kg): 38 s; Duration ([6]; 0.4 mg/kg): 10 min; Duration ([7]; 0.2 mg/kg): 8.46 min |
| COc1cc2c(cc1OC)[C@@H](Cc1cc(OC)c(OC)c(OC)c1)[N@+](C)(CCCOC(=O)/C=C(\Cl)C(=O)OCCC[N@+]1(C)CCc3cc(OC)c(OC)cc3[C@H]1Cc1cc(OC)c(OC)c(OC)c1)CC2.[Cl-].[Cl-] | 0.109 | 73 | 8.7 | Onset [4]: 23 s; Onset [5]: 36 s; Duration [6]: 13.4 min; Duration [7]: 9.78 min |
| COc1cc2c(cc1OC)[C@@H](c1cc(OC)c(OC)c(OC)c1)[N@+](C)(CCCOC(=O)/C=C/C(=O)OCCC[N@+]1(C)CCc3cc(OC)c(OC)cc3[C@H]1c1cc(OC)c(OC)c(OC)c1)CC2.[Cl-].[Cl-] | 1.55 | 144 | 25.5 | – |
| COc1cc2c(cc1OC)[C@H](c1cc(OC)c(OC)c(OC)c1)[N@@+](C)(CCCOC(=O)/C(Cl)=C/C(=O)OCCC[N@+]1(C)CCc3cc(OC)c(OC)cc3[C@H]1Cc1cc(OC)c(OC)c(OC)c1)CC2.[Cl-].[Cl-] | 0.25 | 52 | 3.4 | – |
| C[N+](C)(C)CCOC(=O)CCC(=O)OCC[N+](C)(C)C.[Cl-].[Cl-] [SUCCINYLCHOLINE CHLORIDE] | 1.29 | 50 | 5 | – |
